# According to US4440784A, “Anti-inflammatory, analgesic, and antipyretic pharmaceutical composition” (Kanegafuchi Chemical Industry Company, Ltd., priority 1981, dated 1984):
# Like-named read-outs stand apart in the source and are kept apart here.
# How the values were obtained:
# [1] = test system: paper disk-induced granuloma in rats; assay: paper disk-induced granuloma in rats (sub-chronic anti-inflammatory activity); type: in vivo, male Wistar strain rats; conditions: rat, p.o. once daily for 7 days
# Method: Six male Wistar strain rats weighing 150~180 g were used in each group. Each paper disk (29±1 mg) was implanted s.c. into the bilateral area of the scapula of rats under anesthesia with amobarbital sodium. […] The rats were killed on day 7, at which time the paper disks with surrounding granulomatous tissues were removed and dried to constant weight overnight, and weighed. Percent inhibition was calculated by the following equation. [formula]
# [2] = test system: carrageenan-induced paw edema in rats; assay: carrageenan-induced paw edema in rats (acute anti-inflammatory activity); type: in vivo, male Wistar strain rats; conditions: po, rat, p.o., 50 mg/kg
# Method: (1) An acute anti-inflammatory activity was evaluated by the method of carrageenan-induced paw edema in rats [C. A. Winter et al., Proc. Soc. […] Six male Wistar strain rats weighing 150~180 g were used in each group. […] The volume of each paw edema was measured 3 and 5 hours after the injection of carrageenan. Percent edema inhibition was calculated by the following equation. [formula]
# [3] = test system: acetic acid-induced writhing in mice; assay: acetic acid-induced writhing in mice (analgesic activity); type: in vivo, male ddY strain mice; conditions: po; mouse, p.o., 100 mg/kg, 1 hour before acetic acid i.p.; read-out: Inhibition (writhing)
# Method: An analgesic activity was evaluated by the method of acetic acid-induced writhing in mice [R. Koster et al., Federation Proc., 18, 412 (1959)]. Ten male ddY strain mice weighing 20~25 g were used in each group. Test compounds suspended in 2.5% acacia were administered p.o. to the mice. One hour later, the mice were injected i.p. with 0.6% acetic acid in a volume of 0.1 ml/10 g body weight. The number of writhes in each of mice was counted for 20 minutes after the injection of the acetic acid. Percent inhibition was calculated by the following equation. [formula]
# [4] = test system: yeast-induced fever in rats; assay: yeast-induced fever in rats (antipyretic activity); type: in vivo, male Wistar strain rats; conditions: po, rat, p.o., 100 mg/kg
# Method: Five male Wistar strain rats weighing 150~180 g were used in each group. A 20% Baker's yeast suspension in 0.9% NaCl was injected s.c. into the dorsal region of rats in a volume of 1 ml/100 g body weight. […] The rectal temperature was determined with a thermometer, 1, 3 and 5 hours after the administration of test compounds. Percent inhibition was calculated by the following equation. [formula]
# [5] = toxicity test in mice (LD50); conditions: in vivo, po; mouse, 14 days observation
# Method: Female ICR strain mice weighing 20~25 g in groups of six each were used for toxicity tests. Test compounds suspended in 2.5% acacia were administered p.o. to the mice. The animals were observed daily for 14 days after the administration. The LD50 values were estimated from mortality (No. of dead mice/No. of mice used).
# [6] = test system: adjuvant-induced arthritis in rats; assay: adjuvant-induced arthritis in rats (chronic anti-inflammatory activity); type: in vivo, male Sprague-Dawley strain rats; conditions: rat, p.o. once daily
# Method: (3) A chronic anti-inflammatory activity was evaluated by the method of adjuvant-induced arthritis in rats [D. T. Walz et al., J. Pharmacol. and Exp. Ther., 178, 223 (1971)]. Eight male Sprague-Dawley strain rats weighing 190~230 g were used in each group. Into the left hind paw of rats was injected i.d. 0.5 mg of Mycobacterium butyricum suspended in 0.05 ml of paraffin oil. Test compounds suspended in 2.5% acacia were administered p.o. once daily for 21 days, starting on the day of the injection of an adjuvant (day 0). Paw volumes of adjuvant-injected and uninjected feet were measured on day 14 and on day 21. Percent inhibition was calculated by the following equation. [formula]
compound,measurement,setting,value
"CC(=O)C=Cc1cc(C(C)(C)C)c(O)c(C(C)(C)C)c1 [Compound V, β-Acetyl-3,5-di-tert-butyl-4-hydroxystyrene]",Inhibition (granuloma),[1]; 25 mg/kg/day,29.4%
same,Inhibition (granuloma),[1]; 100 mg/kg/day,29.0%
same,inhibition in vivo at 50 mg/kg,"[2]; 3 hours after carrageenan, read-out: Percent edema inhibition, 3 hours",43.2%
same,inhibition in vivo at 50 mg/kg,"[2]; 5 hours after carrageenan, read-out: Percent edema inhibition, 5 hours",50%
same,inhibition in vivo at 100 mg/kg,[3],53.1%
same,inhibition in vivo at 100 mg/kg,"[4]; 1 hour after administration, read-out: Inhibition (fever), 1 hour",34.5%
same,inhibition in vivo at 100 mg/kg,"[4]; 3 hours after administration, read-out: Inhibition (fever), 3 hours",70.9%
same,inhibition in vivo at 100 mg/kg,"[4]; 5 hours after administration, read-out: Inhibition (fever), 5 hours",64.9%
same,LD50 at 336 h,[5],> 1000 mg/kg
same,"Inhibition, injected foot, Day 14",[6]; 12.5 mg/kg/day,12.0%
same,"Inhibition, injected foot, Day 21",[6]; 12.5 mg/kg/day,29.6%
same,"Inhibition, uninjected foot, Day 14",[6]; 12.5 mg/kg/day,10.6%
same,"Inhibition, uninjected foot, Day 21",[6]; 12.5 mg/kg/day,14.7%
same,"Inhibition, injected foot, Day 14",[6]; 50 mg/kg/day,37.3%
same,"Inhibition, injected foot, Day 21",[6]; 50 mg/kg/day,58.8%
same,"Inhibition, uninjected foot, Day 14",[6]; 50 mg/kg/day,74.5%
same,"Inhibition, uninjected foot, Day 21",[6]; 50 mg/kg/day,69.3%
